Experimental data published in patent US4198349A, “Benzylideneaniline derivatives” (William H. Rorer, Inc., priority 1978, dated 1980).

system: croton oil-induced inflammation in the mouse's ear; experiment: Topical anti-inflammatory activity after immediate application in croton oil-induced inflammation in the mouse's ear; assay type: in vivo, mouse (female CF1); conditions: 4 h, Topical Dose 4 mg/ear, immediate application with 2% croton oil, ears taken four hours after application, read-out: % Inhibition of Ear Edema
Protocol: Testing of the anti-inflammatory effects of the compounds of Formula I were performed utilizing a modification of the experimental techniques described by Tonelli, G., Thibault, L. and Ringler, L., "A Bioassay for the Concomitant Assessment of the Anti-phlogistic and Thymolytic Activities of Topically Applied Corticoids": Endocrinology 77, 625 (1965) and Roszkowski, A. P., Rooks, W. H. II, Tomolonis, A. J., and Miller, L. M., "Anti-inflammatory and Analgetic Properties of the d-2-(6-Methoxy-2'-Naphthyl)Propionic Acid (Naproxen)". J. Pharm. Exp. Ther., 179, 114 (1971).
The topical anti-inflammatory activity of the test compounds is measured by immediate application at the time of induction of croton oil-induced inflammation in the mouse's ear.
0.1 ml. of a solution containing 2% croton oil (Amend Drug and Chemical Co., Irvington, N.J.), 73% diethyl ether, U.S.P. (Corco Chemical Corp., Fairless Hills, Pa.), 20% pyridine (J. T. Baker Chemical Co., Phillipsburg, Pa.) and 5% distilled water was applied to the left ear of female CF1 mice, in groups of six, during light ether anesthesia.
Four hours after application of either the irritant solution or the irritant solution containing the test compound, the mice were sacrificed by cervical dislocation, both ears were amputated and circular sections, one from each ear, were removed with a No. 4 cork borer (7 mm, i.d.). Each ear section was then weighed. The increase in weight due to edema formation caused by the croton oil in the treated ear and the reduction of that edema caused by drug treatment was determined by subtracting the weight of the untreated right ear section from that of the treated left ear section.
The anti-inflammatory effects of the test compounds expressed as percent inhibition are calculated by: [formula]
TOPICAL ANTI-INFLAMMATORY ACTIVITY AFTER
IMMEDIATE APPLICATION IN CROTON OIL-INDUCED
INFLAMMATION IN THE MOUSE'S EAR

Structure (SMILES)	inhibition in vivo at 4 mg/ear [%]
Clc1ccc(N=Cc2c(Cl)cccc2Cl)cc1 [N-(2,6-dichlorobenzylidene)-p-chloroaniline]	9.1
Clc1cc(C=Nc2ccc(Br)cc2)ccc1C1CCCCC1 [N-(3-chloro-4-cyclohexylbenzylidene)-p-bromoaniline]	1.5
Fc1ccc(N=Cc2ccc(C3CCCCC3)c(Cl)c2)cc1 [N-(3-chloro-4-cyclohexylbenzylidene)-p-fluoroaniline]	6.8
Fc1ccc(N=Cc2cccc(Cl)c2)cc1 [N-(m-chlorobenzylidene)-p-fluoroaniline]	9.1
Cc1c(Cl)cccc1N=Cc1ccccc1Cl [N-(o-chlorobenzylidene)-3-chloro-2-methylaniline]	44.3
Clc1cccc(N=Cc2ccccc2Cl)c1 [N-(o-chlorobenzylidene)-m-chloroaniline]	4
Fc1ccc(N=Cc2ccccc2Cl)cc1 [N-(o-chlorobenzylidene)-p-fluoroaniline]	24.3
Cc1cccc(N=Cc2ccccc2O)c1C [N-(o-hydroxybenzylidene)-2,3-dimethylaniline]	27.8
Cc1c(Cl)cccc1N=Cc1ccccc1O [N-(o-hydroxybenzylidene)-2-methyl-3-chloroaniline]	38.5
Oc1ccccc1C=Nc1ccccc1 [N-(o-hydroxybenzylidene)-aniline, N-(o-hydroxybenzylidene)aniline]	5.3
Oc1ccccc1C=Nc1cccc(C(F)(F)F)c1 [N-(o-hydroxybenzylidene)-m-(α,α,α-trifluorotoluidine)]	21.6
Oc1ccccc1C=Nc1ccc(F)cc1 [N-(o-hydroxybenzylidene)-p-fluoroaniline]	21.5
Fc1ccc(N=Cc2ccc(Br)cc2)c(C(F)(F)F)c1 [N-(p-bromobenzylidene)-4-fluoro-2-trifluoromethylaniline]	18.8
Cc1c(Cl)cccc1N=Cc1ccc(Cl)cc1 [N-(p-chlorobenzylidene)-2-methyl-3-chloroaniline]	46.8
Cc1cc(Cl)ccc1N=Cc1ccc(Cl)cc1 [N-(p-chlorobenzylidene)-2-methyl-4-chloroaniline]	23
Fc1ccc(N=Cc2ccc(Cl)cc2)c(C(F)(F)F)c1 [N-(p-chlorobenzylidene)-4-fluoro-2-trifluoromethylaniline]	36.5

Structure (SMILES)	inhibition in vivo at 4 mg/ear [%]
Clc1ccc(C=Nc2cccc(Cl)c2)cc1 [N-(p-chlorobenzylidene)-m-chloroaniline]	23.6
Fc1cccc(N=Cc2ccc(Cl)cc2)c1 [N-(p-chlorobenzylidene)-m-fluoroaniline]	10.8
Fc1ccc(N=Cc2ccc(Cl)cc2)cc1 [N-(p-chlorobenzylidene)-p-fluoroaniline]	45.2
Cc1ccc(N=Cc2ccc(Cl)cc2)cc1 [N-(p-chlorobenzylidene)-p-methylaniline]	16.2
Fc1ccc(C=Nc2ccccc2C(F)(F)F)cc1 [N-(p-fluorobenzylidene)-o-trifluoromethylaniline]	21.3
Clc1cc(Br)ccc1N=Cc1ccc(-c2ccccc2)cc1 [N-(p-phenylbenzylidene)-2-chloro-4-bromoaniline]	33.9
C(=Nc1ccccc1)c1ccc(-c2ccccc2)cc1 [N-(p-phenylbenzylidene)-aniline, N-(p-phenylbenzylidene)aniline]	24.7
Brc1ccc(N=Cc2ccc(-c3ccccc3)cc2)cc1 [N-(p-phenylbenzylidene)-p-bromoaniline]	25.5
Cc1ccc(N=Cc2ccc(-c3ccccc3)cc2)cc1 [N-(p-phenylbenzylidene)-p-methylaniline]	27
Cc1cc(F)ccc1N=Cc1ccccc1 [N-benzylidene-2-methyl-4-fluoroaniline]	26.8
Cc1ccccc1N=Cc1ccccc1 [N-benzylidene-o-toluidine]	5.5
Clc1ccc(N=Cc2ccccc2)cc1 [N-benzylidene-p-chloroaniline]	29.3
CCc1ccc(N=Cc2ccccc2)cc1 [N-benzylidene-p-ethylaniline]	30.5
Cc1ccc(N=Cc2ccccc2)cc1 [N-benzylidene-p-toluidine]	45
C(=Nc1ccccc1)c1ccccc1 [N-benzylideneaniline, N-Benzylideneaniline]	4.9
